Test results: PMC9950143 (Scientific Reports, 2023)
Entries after “also recorded” stand apart in the source; their conditions may differ. Where a name gives a salt, the structure may show the parent alone.

How the values were obtained:
[1] = ref PubChem compound summaries; cited from earlier work
[2] = human plasma maximum concentration; ref [1]–[19]; cited from earlier work
[3] = tested on: SUDV Boniface and MARV Ci67; format: cell-based, Sudan virus, Marburg virus
SUDV Boniface [4] = test: microbe, parasite or virus in culture; format: cell-based, Sudan virus; conditions: for EC50: Sudan ebolavirus, HeLa, read-out: Activity against SUDV EC50
in vitro [5] = conditions: human
MARV Ci67 [6] = test: organism not typed; format: cell-based, Marburg virus; conditions: HeLa, read-out: Activity against MARV EC50
MARV Ci67 [7] = format: cell-based, Marburg virus
in vitro [8] = conditions: human; remark: listed apart in the source
SUDV Boniface [9] = format: cell-based, Sudan virus
[10] = in vivo; cited from earlier work
yellow fever virus (YFV) = conditions: read-out: EC50 against yellow fever virus (YFV); cited from earlier work
HCV 1b replicon = conditions: read-out: EC50 against HCV 1b replicon (early studies); cited from earlier work
dengue virus-2 (DENV-2) = conditions: read-out: EC50 against dengue virus-2 (DENV-2); cited from earlier work
West Niles virus (WNV) = conditions: read-out: EC50 against West Niles virus (WNV); cited from earlier work

SMILES	Plasma Protein Binding [1]	RDV CC50 when combination (HeLa cells; human) [µM]	RDV CC50 when in combination (HeLa cells; human) [µM]	Cmax [2]	Drug-drug interaction? (RDV potency) [3]	effect on RDV potency in combination studies [3]	other results
CC(=O)Nc1ccc(O)cc1 [Acetaminophen]	10–25%	> 2.5	> 2.5	11400 [1] ng/mL	No	minimal effect on RDV potency	–
CCN(CC)Cc1cc(Nc2ccnc3cc(Cl)ccc23)ccc1O [Amodiaquine, Amodiaquine hydrochloride dihydrate]	–	> 2.5	> 2.5	32.3 [2] ng/mL	Enhanced^5 for SUDV	–	fold lowering of RDV EC50 against SUDV (SUDV Boniface [4]): > 5 folds
CO[C@H]1O[C@@H]2O[C@@]3(C)CC[C@H]4[C@H](C)CC[C@@H]([C@H]1C)[C@@]24OO3 [Artemether]	95.4%	> 2.5	> 2.5	198 [3] ng/mL	No	minimal effect on RDV potency	–
C[C@H]1[C@H](OC(=O)CCC(=O)O)O[C@@H]2O[C@@]3(C)CC[C@H]4[C@H](C)CC[C@@H]1[C@@]24OO3 [Artesunate]	93%	> 2.5	–	3260 [4] ng/mL	No	–	–
O=C1C(O)=C([C@H]2CC[C@H](c3ccc(Cl)cc3)CC2)C(=O)c2ccccc21 [Atovaquone]	99.9%	–	–	8300 [5, 6] ng/mL	No	minimal effect on RDV potency	cytotoxicity of combination with RDV (HeLa cells): Enhanced cytotoxicity; CC50 (in vitro [5]; CC50 when tested alone): 8 to 17 µM
CO/N=C(\C(=O)N[C@@H]1C(=O)N2C(C(=O)O)=C(CSc3nc(=O)c(=O)[nH]n3C)CS[C@H]12)c1csc(N)n1 [Ceftriaxone, ceftriaxone disodium salt hemi(heptahydrate)]	–	> 2.5	> 2.5	291000 [7] ng/mL	Not antagonistic	–	CC50 (SUDV assay) (HeLa cells; human): 20.9 ± 10.1 µM
O=C(O)c1cn(C2CC2)c2cc(N3CCNCC3)c(F)cc2c1=O [Ciprofloxacin]	–	–	–	–	Enhanced for SUDV	–	–
CN1C(=O)CN=C(c2ccccc2)c2cc(Cl)ccc21 [Diazepam]	–	–	–	–	No	minimal effect on RDV potency	–
O=C1Nc2ccc(Cl)cc2[C@@](C#CC2CC2)(C(F)(F)F)O1 [Efavirenz]	99.5–99.75%	–	–	12900 [14] ng/mL	Not antagonistic	–	EC50 (SUDV Boniface [4]): 2.24 ± 0.57 µM; cytotoxicity of combination with RDV (HeLa cells): Enhanced cytotoxicity; EC50 (MARV Ci67 [6]): 19.8 ± 0.1 µM; CC50 at 48 h (in vitro [5]): 15.1 ± 4.1 µM; CC50 (in vitro [5]; CC50 (SUDV assay)): 20.7 ± 10.1 µM; CC50 (in vitro [5]; CC50 when tested alone): 14 to 28 µM
NC(=O)c1nc(F)c[nH]c1=O [Favipiravir, 6-fluoro-3-oxo-3,4-dihydropyrazine-2-carboxamide]	–	–	–	–	–	–	maximum fold reduction of favipiravir EC50 in combination with RDV (MARV Ci67 [7]): ≥ 4.8 fold; CC50 (in vitro [8]): > 750 µM; maximum fold reduction of favipiravir EC50 in combination with RDV (SUDV Boniface [9]): ≥ 21 fold; decrease of plasma median concentration on Day 4 [10]: ~ 50%
N#C[C@@]1(c2ccc3c(N)ncnn23)O[C@H](CO)[C@@H](O)[C@H]1O [GS-441524]	–	–	–	–	–	–	EC50 (yellow fever virus (YFV)): 11 µM; EC50 (HCV 1b replicon): 3.1 µM; EC50 (dengue virus-2 (DENV-2)): 9.46 µM; EC50 (West Niles virus (WNV)): > 30 µM
Nc1ccn([C@@H]2CS[C@H](CO)O2)c(=O)n1 [Lamivudine]	<36%	> 2.5	> 2.5	2600 [15] ng/mL	No	minimal effect on RDV potency	–
Cc1cccc(C)c1OCC(=O)N[C@@H](Cc1ccccc1)[C@@H](O)C[C@H](Cc1ccccc1)NC(=O)[C@H](C(C)C)N1CCCNC1=O [Lopinavir]	>98%	> 2.5	> 2.5	–	No for MARV; also recorded: Not antagonistic	–	EC50 (SUDV Boniface [4]): 2.32 ± 0.58 µM; EC50 (MARV Ci67 [6]): > 100 µM; CC50 at 48 h (in vitro [5]): > 100 µM; CC50 (in vitro [5]; CC50 (SUDV assay)): 34.1 ± 0.9 µM
CCCCN(CCCC)CC(O)c1cc(Cl)cc2c1-c1ccc(Cl)cc1/C2=C/c1ccc(Cl)cc1 (stereo not drawn) [Lumefantrine]	–	> 2.5	> 2.5	6300 [10] ng/mL	Not antagonistic	–	EC50 (SUDV Boniface [4]): 9.6 ± 0.52 µM; EC50 (MARV Ci67 [6]): 16.6 ± 7.3 µM; CC50 at 48 h (in vitro [5]): 37.3 ± 0.9 µM; CC50 (in vitro [5]; CC50 (SUDV assay)): 40 ± 1.2 µM
Cc1ncc([N+](=O)[O-])n1CCO [Metronidazole]	20%	> 2.5	> 2.5	5100 [11] ng/mL	No	minimal effect on RDV potency	–
COc1ccc2[nH]c([S+]([O-])Cc3ncc(C)c(OC)c3C)nc2c1 (stereo not drawn) [Omeprazole]	–	> 2.5	> 2.5	598 [12] ng/mL	No	minimal effect on RDV potency	–
Cc1nccn1CC1CCc2c(c3ccccc3n2C)C1=O (stereo not drawn) [Ondansetron, ondansetron hydrochloride dihydrate]	73%	> 2.5	> 2.5	106 [13] ng/mL	No	minimal effect on RDV potency	–
[H]/N=C(\N/C(=N/[H])Nc1ccc(Cl)cc1)NC(C)C [Proguanil, Proguanil hydrochloride]	–	> 2.5	> 2.5	918 [5] ng/mL	No	minimal effect on RDV potency	–
CC(C)c1nc(CN(C)C(=O)N[C@H](C(=O)N[C@@H](Cc2ccccc2)C[C@H](O)[C@H](Cc2ccccc2)NC(=O)OCc2cncs2)C(C)C)cs1 [Ritonavir]	–	–	–	1271 [17] ng/mL	No	minimal effect on RDV potency	–
CC(C)OC(=O)OCOP(=O)(CO[C@H](C)Cn1cnc2c(N)ncnc21)OCOC(=O)OC(C)C [Tenofovir disoproxil fumarate]	<1%	> 2.5	> 2.5	300 [18, 19] ng/mL	No	minimal effect on RDV potency	–
